What was measured:
[1] = target: T1, FAR-RXRα complex (rat FAR and human RXRα) (Rattus norvegicus, UniProt Q62735, D356M/DEL339-355/E357R/INS337LPDTQTCWKKEFERAAS); assay: hsp27-EcRE×5 MTV-luciferase reporter cotransfection in CV-1 cells expressing FAR and RXRα; type: cell-based; details: for activation of FAR-RXRα complex, hsp27 EcRE reporter: FIG. 5C
T1 construct: expressed in transfected cells; host or cells: CV-1 cells, CMV-driven expression vectors
T1 sequence (Q62735 1-469): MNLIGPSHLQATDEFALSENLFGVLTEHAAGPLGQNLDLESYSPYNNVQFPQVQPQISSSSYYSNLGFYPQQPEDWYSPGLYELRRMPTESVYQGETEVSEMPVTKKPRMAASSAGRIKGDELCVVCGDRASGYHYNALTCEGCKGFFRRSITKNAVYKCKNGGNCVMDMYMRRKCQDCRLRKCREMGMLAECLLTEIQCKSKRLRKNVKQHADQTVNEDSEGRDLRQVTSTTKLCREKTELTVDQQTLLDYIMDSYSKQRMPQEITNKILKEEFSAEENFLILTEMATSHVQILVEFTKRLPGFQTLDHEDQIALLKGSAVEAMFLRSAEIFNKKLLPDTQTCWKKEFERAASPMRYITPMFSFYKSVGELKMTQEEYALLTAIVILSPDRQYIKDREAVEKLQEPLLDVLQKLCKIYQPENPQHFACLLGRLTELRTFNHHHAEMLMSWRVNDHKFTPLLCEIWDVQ
T1 sequence (P19793 1-462 partner): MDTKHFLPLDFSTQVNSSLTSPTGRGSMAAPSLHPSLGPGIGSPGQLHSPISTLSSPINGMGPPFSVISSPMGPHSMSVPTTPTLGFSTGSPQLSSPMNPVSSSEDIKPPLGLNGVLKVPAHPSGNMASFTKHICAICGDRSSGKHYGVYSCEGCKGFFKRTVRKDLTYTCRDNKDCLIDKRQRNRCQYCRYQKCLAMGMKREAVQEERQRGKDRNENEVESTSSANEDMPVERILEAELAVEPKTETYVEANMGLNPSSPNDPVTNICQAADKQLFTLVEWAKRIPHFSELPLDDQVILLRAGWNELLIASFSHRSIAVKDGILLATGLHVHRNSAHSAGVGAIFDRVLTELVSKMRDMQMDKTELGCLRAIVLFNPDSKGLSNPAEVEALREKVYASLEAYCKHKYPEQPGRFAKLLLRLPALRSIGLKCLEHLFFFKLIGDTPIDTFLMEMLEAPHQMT
Method: Thus, CV-1 cells were grown in DMEM supplemented with 10% AG1-X8 resin-charcoal stripped calf bovine serum, 50 U/ml penicillin G and 50 μg/ml streptomycin sulfate (DMEM-CBS) at 37° C. in 5% CO2. One day prior to transfection, cells were plated to 50-80% confluence using phenol-red free DMEM with 10% resin charcoal stripped fetal bovine serum (DMEM-FBS). Cells were transfected (with reporter construct (300 ng/10^5 cells), cytomegalovirus driven receptor (100 ng/10^5 cells) and β-galactosidase expression vectors (500 ng/10^5 cells) as indicated in FIG. 4) by lipofection using N-{2-(2,3)-dioleoyloxy)propyl-N,N,N-trimethyl ammonium methyl sulfate} according to the manufacturer's instructions (DOTAP, Boehringer Mannheim). […] Cells were harvested and assayed for luciferase and β-galactosidase activity. […] Data points were normalized for differences in transfection efficiency using β-galactosidase, and plotted as relative activity where the untreated reporter is defined to have an activity of 1 unit.
(§1) Based on the identification of an EcRE as a DNA target, a reporter plasmid was constructed containing 5 copies of the hsp27 response element linked to a truncated mouse mammary tumor virus promoter (Yao et al., Nature 366:476-479 (1993)). This reporter was cotransfected into CV-1 cells alone, or with expression vectors for FAR and/or RXRα. Cotransfected cells were treated with a variety of potential ligands and monitored for changes in luciferase activity.
Thus, with reference to FIG. 5A, CV-1 cells were transiently transfected with hsp27-EcRE×5 MTV-luciferase alone (−) or with expression vectors for rat FAR and/or human RXRα. Reporter activity was assayed after treating cells with or without 50 μM JH III.
CV-1 cells were transiently transfected as described above with reference to FIG. 5A, but treated with or without 50 μM JH III, 100 nM LG69 and JH III+LG69.
Thus, CV-1 cells were transiently transfected with expression vectors for rat FR and human RXRα, as described above in Example 3. […] Data is plotted in FIG. 6A as fold activation relative to untreated cells.

[2] = system: HMG-CoA reductase; details: by a mevalonate-derived non-sterol; cited from earlier work
[3] = target: T2, human RXRα (Homo sapiens, UniProt P19793); assay: luciferase reporter in CV-1 cells expressing RXRα alone (hsp27-EcRE×5 MTV; CRBPII-TK); type: cell-based; details: 50 μM JH III; FIGS. 5A and 5B
T2 construct: expressed in transfected cells; host or cells: CV-1 cells, CMV-driven expression vector
T2 sequence (P19793 1-462): T1 sequence (P19793 1-462 partner)
Method: (§2) Thus, CV-1 cells were grown in DMEM supplemented with 10% AG1-X8 resin-charcoal stripped calf bovine serum, 50 U/ml penicillin G and 50 μg/ml streptomycin sulfate (DMEM-CBS) at 37° C. in 5% CO2. One day prior to transfection, cells were plated to 50-80% confluence using phenol-red free DMEM with 10% resin charcoal stripped fetal bovine serum (DMEM-FBS). Cells were transfected (with reporter construct (300 ng/10^5 cells), cytomegalovirus driven receptor (100 ng/10^5 cells) and β-galactosidase expression vectors (500 ng/10^5 cells) as indicated in FIG. 4) by lipofection using N-{2-(2,3)-dioleoyloxy)propyl-N,N,N-trimethyl ammonium methyl sulfate} according to the manufacturer's instructions (DOTAP, Boehringer Mannheim). […] Cells were harvested and assayed for luciferase and β-galactosidase activity. All points were performed in triplicate and varied by less than 10%. Experiments were repeated three or more time with similar results. Data points were normalized for differences in transfection efficiency using β-galactosidase, and plotted as relative activity where the untreated reporter is defined to have an activity of 1 unit.
Thus, with reference to FIG. 5A, CV-1 cells were transiently transfected with hsp27-EcRE×5 MTV-luciferase alone (−) or with expression vectors for rat FAR and/or human RXRα. Reporter activity was assayed after treating cells with or without 50 μM JH III. […]

[4] = system: ornithine decarboxylase; details: 100 μM; bovine lymphocytes; cited from earlier work
[5] = target: T1, FAR-RXRα complex (rat FAR and human RXRα); assay: hsp27-EcRE×5 MTV-luciferase reporter cotransfection in CV-1 cells expressing FAR and RXRα; type: cell-based; details: JH III; parental MTV reporter without EcREs
[6] = system: Drosophila G-EcR+USP; assay: G-EcR+USP / hsp27-EcRE×5 MTV luciferase reporter; type: cell-based; details: 50 μM JH III; FIG. 5B
Method: as §2, with “unit. […]” for “unit.”

[7] = target: T3, human T3Rβ (Homo sapiens, UniProt P10828); assay: T3Rβ / TREp×2-TK luciferase reporter; type: cell-based; details: 50 μM JH III; FIG. 5B
T3 construct: expressed in transfected cells
T3 sequence (P10828 1-461): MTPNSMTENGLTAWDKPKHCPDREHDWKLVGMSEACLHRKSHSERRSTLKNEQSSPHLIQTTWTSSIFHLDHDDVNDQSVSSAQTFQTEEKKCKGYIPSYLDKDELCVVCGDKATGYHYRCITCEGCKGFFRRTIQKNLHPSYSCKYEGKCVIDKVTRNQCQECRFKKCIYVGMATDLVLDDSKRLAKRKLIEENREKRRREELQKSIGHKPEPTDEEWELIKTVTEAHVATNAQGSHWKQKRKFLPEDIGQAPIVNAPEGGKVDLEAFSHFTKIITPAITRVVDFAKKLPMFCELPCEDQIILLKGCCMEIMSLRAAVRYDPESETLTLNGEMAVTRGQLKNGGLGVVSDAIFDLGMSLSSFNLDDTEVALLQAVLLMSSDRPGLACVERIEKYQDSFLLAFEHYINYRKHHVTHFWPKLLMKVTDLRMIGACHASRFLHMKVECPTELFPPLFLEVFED
Method: as §2, with “unit. […]” for “unit.”

[8] = target: T4, human RARα (Homo sapiens, UniProt P10276); assay: RARα / DR5×2-TK luciferase reporter; type: cell-based; details: 50 μM JH III; FIG. 5B
T4 construct: expressed in transfected cells
T4 sequence (P10276 1-462): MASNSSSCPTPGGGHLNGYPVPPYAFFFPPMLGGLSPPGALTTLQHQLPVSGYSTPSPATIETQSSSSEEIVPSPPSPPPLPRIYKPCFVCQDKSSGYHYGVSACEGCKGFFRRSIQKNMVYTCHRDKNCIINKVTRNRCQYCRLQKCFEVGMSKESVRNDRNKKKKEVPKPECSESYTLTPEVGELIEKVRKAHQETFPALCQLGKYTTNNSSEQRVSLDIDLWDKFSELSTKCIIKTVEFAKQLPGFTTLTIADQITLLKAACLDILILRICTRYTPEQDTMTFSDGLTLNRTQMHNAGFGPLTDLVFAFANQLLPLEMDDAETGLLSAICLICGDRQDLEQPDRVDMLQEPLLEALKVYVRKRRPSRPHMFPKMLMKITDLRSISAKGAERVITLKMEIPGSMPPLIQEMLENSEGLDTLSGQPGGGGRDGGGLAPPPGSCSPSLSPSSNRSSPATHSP
Method: as §2, with “unit. […]” for “unit.”

[9] = target: T5, rat FAR (Rattus norvegicus, UniProt Q62735, D356M/DEL339-355/E357R/INS337LPDTQTCWKKEFERAAS); assay: hsp27-EcRE×5 MTV-luciferase reporter in CV-1 cells expressing FAR alone; type: cell-based; details: 50 μM JH III; FIG. 5A
T5 construct: expressed in transfected cells; host or cells: CV-1 cells, CMV-driven expression vector
T5 sequence (Q62735 1-469 INS337LPDTQTCWKKEFERAAS/DEL339-355/D356M/E357R): T1 sequence (Q62735 1-469)
Method: as §2, with “Data points were normalized for differences in transfection efficiency using β-galactosidase, and plotted as relative activity where the untreated reporter is defined to have an activity of 1 unit.” left out
as §1, with “This reporter was cotransfected into CV-1 cells alone, or with expression vectors for FAR and/or RXRα.” left out, “activity. […]” for “activity.”

With CC(C)=CCC/C(C)=C/CC/C(C)=C/CC/C=C(\C)CC/C=C(\C)CCC=C(C)C [squalene] the “activation of FAR-RXRα (in words)” value ([1]; 50 μM, FIG. 6A) was “little or no activation”.
For CC(O)(CCO)CC(=O)O (centres unmarked) [mevalonate], the “activation of FAR-RXRα (in words)” value ([1]; 50 μM, FIG. 6A) is listed as “little or no activation”, the “activation of FAR-RXRα (in words)” value ([1]; 200 μM, cells cotransfected with a mevalonate transporter protein) is listed as “weak activity” and the “concentration added to cells at which down-regulation of HMG-CoA reductase activity occurs” value [2] is listed as > 100 µM.
In the case of C[C@H](CCC1OC1(C)C)[C@H]1CC[C@H]2[C@@H]3CC=C4C[C@@H](O)CC[C@]4(C)[C@H]3CC[C@]12C (some centres unmarked) [24,25-epoxycholesterol], the “activation of FAR-RXRα (in words)” value ([1]; 50 μM, FIG. 6A) is reported as “little or no activation”.
In the case of CC=C(c1ccc(C(=O)O)cc1)c1cc2c(cc1C)C(C)(C)CCC2(C)C [LG69, (4-{1-3,5,5,8,8-pentamethyl-5,6,7,8-tetrahydro-2-napthalenyl)-1-propenyl}benzoic acid], the “activation of FAR-RXRα complex, hsp27 EcRE reporter” value ([1]; 100 nM LG69) is reported as 76 fold.
In the case of CC(C)=CCC[C@@H](C)[C@H]1CC[C@@]2(C)C3=C(CC[C@]12C)[C@@]1(C)CC[C@H](O)C(C)(C)[C@@H]1CC3 [lanosterol], the “activation of FAR-RXRα (in words)” value ([1]; 50 μM, FIG. 6A) is reported as “little or no activation”.
For CC(C)=CCCC(C)=CCCC(C)=CC(=O)O [farnesoic acid], the “activation of FAR-RXRα (in words)” value ([1]; 50 μM, FIG. 6A) was “little or no activation”.
For CC(=O)[C@H]1CC[C@H]2[C@@H]3CC=C4C[C@@H](O)CC[C@]4(C)[C@H]3CC[C@]12C [pregnenolone], the “activation of FAR-RXRα (in words)” value ([1]; 50 μM, FIG. 6A) was “little or no activation”.
For CC(C)=CCC/C(C)=C/CC/C(C)=C/CC/C(C)=C/CO [geranylgeraniol], the “activation of FAR-RXRα (in words)” value ([1]; 50 μM, FIG. 6A) was “weaker activity”.
With CC(C)=CCC/C(C)=C/CC/C(C)=C/CC/C=C(\C)CC/C=C(\C)CCC1OC1(C)C (centres unmarked) [squalene epoxide] the “activation of FAR-RXRα (in words)” value ([1]; 50 μM, FIG. 6A) was “little or no activation”.
For COC(=O)/C=C(\C)CC/C=C(\C)CCC1OC1(C)C (stereo not drawn) [JH III, cis-10,11-epoxy-3,7,11-trimethyl-trans-trans-2,6-dodecadienoic acid methyl ester], the “activation of RXRα alone” value [3] is given as “fails to activate”, the “antagonism of induction of ornithine decarboxylase by phorbol esters and phytohemagglutinin” value [4] is given as “can be antagonized” and the “activation of FAR-RXR complexes using parental MTV reporter construct lacking the EcREs” value [5] is given as “failed to activate”. The “activation of ecdysone receptor (EcR+USP)” value [6] was “failed to activate”, the “activation of thyroid hormone receptor (T3R)” value [7] was “failed to activate” and the “induction of luciferase activity” value ([1]; 50 μM JH III, CV-1 cells expressing both FAR and RXRα, FIG. 5A) was 10 fold. The “activation of FAR-RXRα complex, hsp27 EcRE reporter” value ([1]; 50 μM JH III) was 17 fold, the “activation of all-trans retinoic acid receptor (RAR)” value [8] was “failed to activate” and the “activation of FAR alone” value [9] was “fails to activate”.
For CC(C)=CCC/C(C)=C/CO [geraniol], the “activation of FAR-RXRα (in words)” value ([1]; 50 μM, FIG. 6A) was “little or no activation”.
For C[C@H](CCCC(C)(C)O)[C@H]1CC[C@H]2[C@@H]3CC=C4C[C@@H](O)CC[C@]4(C)[C@H]3CC[C@]12C [25-hydroxycholesterol], the “activation of FAR-RXRα (in words)” value ([1]; 10 μM) was “little or no activation”.
For CC(C)=CCCC(C)=CCCC(C)=CC=O [farnesal], the “activation of FAR-RXRα (in words)” value ([1]; 50 μM, FIG. 6A) was “weaker activity”.

Source: US7439027B2, “Method for modulating process mediated by farnesoid activated receptors” (The Salk Institute for Biological Studies, priority 1995, dated 2008)
